Assay results reported in PMC12627810 (Nature Communications, 2025).
Several values for one entry are separate records, joined by “and”; a condition that tells them apart may be missing. Equal values may be shown once. Read-outs that look alike come from different tables or passages of the source.

Key:
[1] = system: SERT-expressing membranes; settings: cited from earlier work
SERT V86Anap (purified) = assay: Anap fluorescence emission spectra, SERT V86Anap; design: species or system human; settings: 200 nM ligand
SERT F556Anap (purified) [2] = assay: Real-time Anap fluorescence measurements, SERT F556Anap; assay type: binding, human; settings: 200 nM vilazodone after 30 min preincubation with 100 nM imipramine, Na+
SERT WT [3] = biological target: T1, SERT WT (Homo sapiens, UniProt P31645); settings: previous study; cited from earlier work
T1 sequence (P31645 whole entry): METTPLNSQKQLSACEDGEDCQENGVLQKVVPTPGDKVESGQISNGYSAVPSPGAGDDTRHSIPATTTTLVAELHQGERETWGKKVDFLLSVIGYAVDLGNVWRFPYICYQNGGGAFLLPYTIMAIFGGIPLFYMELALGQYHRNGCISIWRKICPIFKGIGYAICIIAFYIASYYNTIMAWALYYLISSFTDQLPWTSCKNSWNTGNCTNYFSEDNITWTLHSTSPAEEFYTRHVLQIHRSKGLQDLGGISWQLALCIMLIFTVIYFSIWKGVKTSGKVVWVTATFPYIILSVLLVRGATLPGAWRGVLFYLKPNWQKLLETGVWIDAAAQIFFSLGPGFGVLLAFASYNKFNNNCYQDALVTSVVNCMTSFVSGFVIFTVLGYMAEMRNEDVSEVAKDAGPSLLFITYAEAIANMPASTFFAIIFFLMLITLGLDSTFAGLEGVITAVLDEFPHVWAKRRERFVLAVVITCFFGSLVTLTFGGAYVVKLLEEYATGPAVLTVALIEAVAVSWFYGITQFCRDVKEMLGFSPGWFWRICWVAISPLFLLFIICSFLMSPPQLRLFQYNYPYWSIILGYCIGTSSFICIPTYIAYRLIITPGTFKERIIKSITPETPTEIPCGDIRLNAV

SERT WT [4] = biological target: T1, SERT WT; assay: [3H]5-HT uptake inhibition, intact COS-7 cells expressing SERT WT; assay type: cell-based
SERT F556Anap (purified) [5] = assay: Anap fluorescence emission spectra, SERT F556Anap; design: species or system human; settings: 200 nM ligand
SERT allosteric site = settings: S1-bound [3H]imipramine; cited from earlier work

Hill coefficient (vilazodone) (SERT WT [4]; SERT WT): > 1
5-HT uptake inhibition by vilazodone in presence of Fab 15B8 (SERT WT [4]; preincubation with 100 nM Fab 15B8 vs buffer, whole cells): unchanged
SMILES: N#Cc1ccc2[nH]cc(CCCCN3CCN(c4ccc5oc(C(N)=O)cc5c4)CC3)c2c1 [vilazodone]
affinity, SERT-expressing membranes ([1]; K+): 36.7 nM
affinity, SERT-expressing membranes ([1]; Na+): 5.8 nM
change of V86Anap fluorescence emission (SERT V86Anap (purified); 200 mM K+): increasing the fluorescence
change of V86Anap fluorescence emission (SERT V86Anap (purified); 200 mM Na+): decreased the fluorescence
τ of time-dependent change in fluorescence, imipramine-bound SERT (SERT F556Anap (purified) [2]): 0.8 ± 0.18 min
Hill coefficient of inhibition of [3H]5-HT uptake (SERT WT [3]): 1.8 and ~ 1.8
change of F556Anap fluorescence emission (SERT F556Anap (purified) [5]; 200 mM K+): red-shifted and increase in fluorescence
change of F556Anap fluorescence emission (SERT F556Anap (purified) [5]; 200 mM NMDG+): decrease in quantum yield and a blue-shift
change of F556Anap fluorescence emission (SERT F556Anap (purified) [5]; 200 mM Na+): large decrease in intensity accompanied by a blue-shift
allosteric potency (inhibition of dissociation of pre-bound [3H]imipramine) (SERT allosteric site): 14 nM and ~ 14 nM
